Source: ChEMBL document CHEMBL5696441 (Nat Chem Biol, 2011)

Legend:
[1] = molecular target: Ephrin type-A receptor 8 (Homo sapiens) (UniProt P29322); assay: Inhibition of human EPHA8 assessed as residual activity at 1 uM using polyEy as substrate in presence of 33P-ATP by ProQinase assay relative to control
[2] = molecular target: Tyrosine-protein kinase ABL2 (Homo sapiens) (UniProt P42684); assay: Inhibition of ABL2 (unknown origin) assessed as remaining activity at 1 uM by Kinome scan method relative to control
[3] = molecular target: Serine/threonine-protein kinase Nek9 (Homo sapiens) (UniProt Q8TD19); assay: Inhibition of human NEK9 assessed as residual activity at 1 uM using RBER-GSK3 as substrate in presence of 33P-ATP by ProQinase assay relative to control
[4] = molecular target: Discoidin domain-containing receptor 2 (Homo sapiens) (UniProt Q16832); assay: Inhibition of human DDR2 assessed as residual activity at 1 uM using poly(Ala,Glu,Lys,Tyr)6:2:5:1 as substrate in presence of 33P-ATP by ProQinase assay relative to control
[5] = molecular target: Ephrin type-B receptor 3 (Homo sapiens) (UniProt P54753); assay: Inhibition of EPHB3 (unknown origin) assessed as remaining activity at 1 uM by Kinome scan method relative to control
[6] = molecular target: Ephrin type-A receptor 4 (Homo sapiens) (UniProt P54764); assay: Inhibition of EPHA4 (unknown origin) assessed as remaining activity at 1 uM by Kinome scan method relative to control
[7] = molecular target: Proto-oncogene tyrosine-protein kinase ROS (Homo sapiens) (UniProt P08922); assay: Inhibition of human ROS assessed as residual activity at 1 uM using poly(Ala,Glu,Lys,Tyr)6:2:5:1 as substrate in presence of 33P-ATP by ProQinase assay relative to control
[8] = system: Proto-oncogene tyrosine-protein kinase receptor Ret (Homo sapiens), P07949 [M918T]; assay: Inhibition of RET M918T (unknown origin) assessed as remaining activity at 1 uM by Kinome scan method relative to control
[9] = molecular target: Tyrosine-protein kinase Lck (Homo sapiens) (UniProt P06239); assay: Inhibition of LCK (unknown origin) assessed as remaining activity at 1 uM by Kinome scan method relative to control
[10] = molecular target: MAP kinase-activated protein kinase 2 (Homo sapiens) (UniProt P49137); assay: Inhibition of human MAPKAPK2 assessed as residual activity at 1 uM using RBER-CHKtide as substrate in presence of 33P-ATP by ProQinase assay relative to control
MAP kinase-activated protein kinase 2 (Homo sapiens), sequence (P49137 whole entry, looked up): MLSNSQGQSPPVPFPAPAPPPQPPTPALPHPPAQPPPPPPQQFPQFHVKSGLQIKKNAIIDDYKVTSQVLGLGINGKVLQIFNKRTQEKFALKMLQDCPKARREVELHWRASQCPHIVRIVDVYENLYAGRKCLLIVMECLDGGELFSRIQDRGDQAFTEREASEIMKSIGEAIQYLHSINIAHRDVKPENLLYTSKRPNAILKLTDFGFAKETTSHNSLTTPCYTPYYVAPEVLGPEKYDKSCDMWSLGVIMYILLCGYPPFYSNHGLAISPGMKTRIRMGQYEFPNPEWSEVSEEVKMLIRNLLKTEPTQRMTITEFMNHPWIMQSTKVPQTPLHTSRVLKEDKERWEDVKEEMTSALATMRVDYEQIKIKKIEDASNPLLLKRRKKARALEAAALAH

[11] = molecular target: Protein kinase C delta type (Homo sapiens) (UniProt Q05655); assay: Inhibition of PRKCD (unknown origin) assessed as remaining activity at 1 uM by Kinome scan method relative to control
[12] = molecular target: RAC-gamma serine/threonine-protein kinase (Homo sapiens) (UniProt Q9Y243); assay: Inhibition of human AKT3 assessed as residual activity at 1 uM using RBER-GSK3(14-27) as substrate in presence of 33P-ATP by ProQinase assay relative to control
[13] = molecular target: Ribosomal protein S6 kinase alpha-1 (Homo sapiens) (UniProt Q15418); assay: Inhibition of N-terminal kinase domain RPS6KA1 (unknown origin) assessed as remaining activity at 1 uM by Kinome scan method relative to control
[14] = molecular target: Ribosomal protein S6 kinase alpha-5 (Homo sapiens) (UniProt O75582); assay: Inhibition of N-terminal kinase domain RPS6KA5 (unknown origin) assessed as remaining activity at 1 uM by Kinome scan method relative to control
[15] = molecular target: Serine/threonine-protein kinase MARK1 (Homo sapiens) (UniProt Q9P0L2); assay: Inhibition of human MARK1 assessed as residual activity at 1 uM using RBER-CHKtide as substrate in presence of 33P-ATP by ProQinase assay relative to control
[16] = molecular target: Serine/threonine-protein kinase TBK1 (Homo sapiens) (UniProt Q9UHD2); assay: Inhibition of human TBK1 assessed as residual activity at 1 uM using casein as substrate in presence of 33P-ATP by ProQinase assay relative to control
Serine/threonine-protein kinase TBK1 (Homo sapiens), sequence (Q9UHD2 whole entry): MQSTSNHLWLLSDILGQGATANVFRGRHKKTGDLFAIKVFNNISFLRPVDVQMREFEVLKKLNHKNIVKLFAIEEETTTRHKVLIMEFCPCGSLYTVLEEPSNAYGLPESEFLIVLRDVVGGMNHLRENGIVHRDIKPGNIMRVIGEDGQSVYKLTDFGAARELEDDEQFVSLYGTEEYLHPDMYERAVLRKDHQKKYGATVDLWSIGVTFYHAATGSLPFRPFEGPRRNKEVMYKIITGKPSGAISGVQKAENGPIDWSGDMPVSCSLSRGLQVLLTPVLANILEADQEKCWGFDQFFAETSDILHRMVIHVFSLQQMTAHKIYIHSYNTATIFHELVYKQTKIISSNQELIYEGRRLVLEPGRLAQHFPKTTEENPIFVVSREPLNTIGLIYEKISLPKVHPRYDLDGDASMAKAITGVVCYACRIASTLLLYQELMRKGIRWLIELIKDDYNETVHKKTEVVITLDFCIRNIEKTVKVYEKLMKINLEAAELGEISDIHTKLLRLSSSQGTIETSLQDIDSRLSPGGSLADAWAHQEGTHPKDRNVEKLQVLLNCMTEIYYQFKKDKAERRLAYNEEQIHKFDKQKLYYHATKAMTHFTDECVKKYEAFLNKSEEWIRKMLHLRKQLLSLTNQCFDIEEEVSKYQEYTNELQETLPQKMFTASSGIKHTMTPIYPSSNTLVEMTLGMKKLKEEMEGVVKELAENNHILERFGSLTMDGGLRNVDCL

[17] = molecular target: Serine/threonine-protein kinase MRCK alpha (Homo sapiens) (UniProt Q5VT25); assay: Inhibition of MRCKA (unknown origin) assessed as remaining activity at 1 uM by Kinome scan method relative to control
[18] = system: Phosphatidylinositol 4,5-bisphosphate 3-kinase catalytic subunit alpha isoform (Homo sapiens), P42336 [E542K]; assay: Inhibition of PIK3CA E542K mutant (unknown origin) assessed as remaining activity at 1 uM by Kinome scan method relative to control
Phosphatidylinositol 4,5-bisphosphate 3-kinase catalytic subunit alpha isoform (Homo sapiens), P42336 [E542K], sequence (P42336 whole entry E542K, canonical isoform): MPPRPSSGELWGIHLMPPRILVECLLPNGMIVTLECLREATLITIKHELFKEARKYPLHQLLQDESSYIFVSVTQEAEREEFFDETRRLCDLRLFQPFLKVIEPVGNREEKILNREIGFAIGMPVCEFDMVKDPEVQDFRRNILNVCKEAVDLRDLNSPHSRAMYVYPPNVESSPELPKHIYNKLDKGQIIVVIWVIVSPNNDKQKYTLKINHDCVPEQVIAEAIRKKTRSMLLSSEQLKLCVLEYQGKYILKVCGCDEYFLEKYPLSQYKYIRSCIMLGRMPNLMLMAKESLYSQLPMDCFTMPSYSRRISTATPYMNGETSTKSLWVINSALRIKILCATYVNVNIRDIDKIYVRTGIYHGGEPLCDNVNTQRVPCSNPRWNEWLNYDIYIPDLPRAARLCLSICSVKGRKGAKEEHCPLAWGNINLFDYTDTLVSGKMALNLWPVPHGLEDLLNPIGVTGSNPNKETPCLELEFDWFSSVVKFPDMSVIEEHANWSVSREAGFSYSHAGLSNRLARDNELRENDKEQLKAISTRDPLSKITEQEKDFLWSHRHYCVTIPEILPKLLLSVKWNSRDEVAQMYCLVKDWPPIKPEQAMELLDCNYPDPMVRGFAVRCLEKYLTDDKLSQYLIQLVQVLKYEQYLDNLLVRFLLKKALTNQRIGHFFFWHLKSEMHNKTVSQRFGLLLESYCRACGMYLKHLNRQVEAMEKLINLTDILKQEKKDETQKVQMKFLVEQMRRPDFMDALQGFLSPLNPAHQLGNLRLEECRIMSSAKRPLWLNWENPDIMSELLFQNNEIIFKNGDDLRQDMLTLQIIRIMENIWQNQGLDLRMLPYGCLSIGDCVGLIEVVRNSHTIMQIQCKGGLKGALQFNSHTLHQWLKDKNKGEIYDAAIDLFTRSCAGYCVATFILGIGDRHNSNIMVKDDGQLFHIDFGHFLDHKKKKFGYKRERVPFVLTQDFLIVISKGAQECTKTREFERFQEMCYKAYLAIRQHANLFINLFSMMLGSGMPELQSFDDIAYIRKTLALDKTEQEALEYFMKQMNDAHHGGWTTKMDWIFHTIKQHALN

[19] = molecular target: Myosin light chain kinase 2, skeletal/cardiac muscle (Homo sapiens) (UniProt Q9H1R3); assay: Inhibition of human MYLK2 assessed as residual activity at 1 uM using RB-S6P as substrate in presence of 33P-ATP by ProQinase assay relative to control
[20] = molecular target: Serine/threonine-protein kinase MRCK beta (Homo sapiens) (UniProt Q9Y5S2); assay: Inhibition of human CDC42BPB assessed as residual activity at 1 uM using RB-S6P as substrate in presence of 33P-ATP by ProQinase assay relative to control
[21] = molecular target: Serine/threonine-protein kinase pim-2 (Homo sapiens) (UniProt Q9P1W9); assay: Inhibition of human PIM2 assessed as residual activity at 1 uM using RBER-GSK3(14-27) as substrate in presence of 33P-ATP by ProQinase assay relative to control
Serine/threonine-protein kinase pim-2 (Homo sapiens), sequence (Q9P1W9 whole entry, looked up): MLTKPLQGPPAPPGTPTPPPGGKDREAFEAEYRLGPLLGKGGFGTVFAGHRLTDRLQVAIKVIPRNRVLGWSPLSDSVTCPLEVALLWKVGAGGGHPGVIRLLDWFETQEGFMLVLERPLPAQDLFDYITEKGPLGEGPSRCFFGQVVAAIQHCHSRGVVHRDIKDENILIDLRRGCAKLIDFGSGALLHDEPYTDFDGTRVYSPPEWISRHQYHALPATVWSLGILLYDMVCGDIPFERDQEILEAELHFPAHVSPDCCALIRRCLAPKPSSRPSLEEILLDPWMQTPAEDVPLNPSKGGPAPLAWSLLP

[22] = molecular target: Receptor-interacting serine/threonine-protein kinase 2 (Homo sapiens) (UniProt O43353); assay: Inhibition of human RIPK2 assessed as residual activity at 1 uM using RBER-CHKtide as substrate in presence of 33P-ATP by ProQinase assay relative to control
Receptor-interacting serine/threonine-protein kinase 2 (Homo sapiens), sequence (O43353 whole entry): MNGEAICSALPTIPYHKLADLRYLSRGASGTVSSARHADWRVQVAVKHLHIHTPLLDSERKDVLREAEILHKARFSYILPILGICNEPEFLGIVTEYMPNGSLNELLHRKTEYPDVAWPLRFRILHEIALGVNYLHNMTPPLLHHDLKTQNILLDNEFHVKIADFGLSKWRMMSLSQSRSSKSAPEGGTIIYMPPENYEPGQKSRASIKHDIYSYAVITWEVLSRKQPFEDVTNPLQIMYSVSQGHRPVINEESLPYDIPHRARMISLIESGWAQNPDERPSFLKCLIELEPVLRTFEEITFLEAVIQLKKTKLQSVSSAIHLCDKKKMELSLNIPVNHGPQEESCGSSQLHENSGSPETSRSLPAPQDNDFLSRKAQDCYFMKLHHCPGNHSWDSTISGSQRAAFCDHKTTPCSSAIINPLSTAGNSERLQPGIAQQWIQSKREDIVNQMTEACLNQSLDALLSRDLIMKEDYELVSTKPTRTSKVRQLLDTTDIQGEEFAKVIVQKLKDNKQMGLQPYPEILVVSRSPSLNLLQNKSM

CYP2C19 = CYP2C19 (Homo sapiens, UniProt P33261); assay: Inhibition of CYP2C19 (unknown origin) at 10 uM relative to control; format: ADME
[23] = molecular target: Dual specificity protein kinase CLK1 (Homo sapiens) (UniProt P49759); assay: Inhibition of CLK1 (unknown origin) assessed as remaining activity at 1 uM by Kinome scan method relative to control
[24] = molecular target: Citron Rho-interacting kinase (Homo sapiens) (UniProt O14578); assay: Inhibition of CIT (unknown origin) assessed as remaining activity at 1 uM by Kinome scan method relative to control
[25] = molecular target: Mitogen-activated protein kinase 9 (Homo sapiens) (UniProt P45984); assay: Inhibition of JNK2 (unknown origin) assessed as remaining activity at 1 uM by Kinome scan method relative to control
Mitogen-activated protein kinase 9 (Homo sapiens), sequence (P45984 whole entry, looked up): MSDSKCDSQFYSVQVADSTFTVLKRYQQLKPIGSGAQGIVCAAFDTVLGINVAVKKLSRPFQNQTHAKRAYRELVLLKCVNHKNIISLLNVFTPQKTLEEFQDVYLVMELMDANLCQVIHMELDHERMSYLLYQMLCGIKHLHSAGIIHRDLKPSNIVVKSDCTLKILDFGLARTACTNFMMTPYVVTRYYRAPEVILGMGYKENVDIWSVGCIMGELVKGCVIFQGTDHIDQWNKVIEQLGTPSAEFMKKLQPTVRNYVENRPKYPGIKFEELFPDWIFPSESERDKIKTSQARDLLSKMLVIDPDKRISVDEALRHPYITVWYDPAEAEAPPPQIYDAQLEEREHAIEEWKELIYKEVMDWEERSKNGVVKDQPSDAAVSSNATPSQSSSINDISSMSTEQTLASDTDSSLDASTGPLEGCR

[26] = molecular target: SRSF protein kinase 3 (Homo sapiens) (UniProt Q9UPE1); assay: Inhibition of human STK23 assessed as residual activity at 1 uM using RBER-CHKtide as substrate in presence of 33P-ATP by ProQinase assay relative to control
[27] = molecular target: Dual specificity protein kinase CLK3 (Homo sapiens) (UniProt P49761); assay: Inhibition of human CLK3 assessed as residual activity at 1 uM using RB-S6P as substrate in presence of 33P-ATP by ProQinase assay relative to control
Dual specificity protein kinase CLK3 (Homo sapiens), sequence (P49761 whole entry, looked up): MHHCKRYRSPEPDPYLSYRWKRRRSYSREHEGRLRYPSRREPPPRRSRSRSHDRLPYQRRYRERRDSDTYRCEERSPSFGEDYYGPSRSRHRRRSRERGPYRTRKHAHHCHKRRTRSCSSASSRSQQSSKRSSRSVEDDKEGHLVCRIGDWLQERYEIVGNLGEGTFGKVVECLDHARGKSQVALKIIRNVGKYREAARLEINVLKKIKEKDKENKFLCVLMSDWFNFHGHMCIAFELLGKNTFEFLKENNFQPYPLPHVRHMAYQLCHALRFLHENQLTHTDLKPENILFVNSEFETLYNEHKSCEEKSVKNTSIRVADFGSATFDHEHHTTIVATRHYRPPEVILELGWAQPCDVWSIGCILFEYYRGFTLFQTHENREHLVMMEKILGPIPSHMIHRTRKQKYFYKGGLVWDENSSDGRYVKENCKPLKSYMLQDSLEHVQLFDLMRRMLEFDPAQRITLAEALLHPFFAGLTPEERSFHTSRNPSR

Ephrin type-A receptor 8 (Homo sapiens), sequence (P29322 whole entry): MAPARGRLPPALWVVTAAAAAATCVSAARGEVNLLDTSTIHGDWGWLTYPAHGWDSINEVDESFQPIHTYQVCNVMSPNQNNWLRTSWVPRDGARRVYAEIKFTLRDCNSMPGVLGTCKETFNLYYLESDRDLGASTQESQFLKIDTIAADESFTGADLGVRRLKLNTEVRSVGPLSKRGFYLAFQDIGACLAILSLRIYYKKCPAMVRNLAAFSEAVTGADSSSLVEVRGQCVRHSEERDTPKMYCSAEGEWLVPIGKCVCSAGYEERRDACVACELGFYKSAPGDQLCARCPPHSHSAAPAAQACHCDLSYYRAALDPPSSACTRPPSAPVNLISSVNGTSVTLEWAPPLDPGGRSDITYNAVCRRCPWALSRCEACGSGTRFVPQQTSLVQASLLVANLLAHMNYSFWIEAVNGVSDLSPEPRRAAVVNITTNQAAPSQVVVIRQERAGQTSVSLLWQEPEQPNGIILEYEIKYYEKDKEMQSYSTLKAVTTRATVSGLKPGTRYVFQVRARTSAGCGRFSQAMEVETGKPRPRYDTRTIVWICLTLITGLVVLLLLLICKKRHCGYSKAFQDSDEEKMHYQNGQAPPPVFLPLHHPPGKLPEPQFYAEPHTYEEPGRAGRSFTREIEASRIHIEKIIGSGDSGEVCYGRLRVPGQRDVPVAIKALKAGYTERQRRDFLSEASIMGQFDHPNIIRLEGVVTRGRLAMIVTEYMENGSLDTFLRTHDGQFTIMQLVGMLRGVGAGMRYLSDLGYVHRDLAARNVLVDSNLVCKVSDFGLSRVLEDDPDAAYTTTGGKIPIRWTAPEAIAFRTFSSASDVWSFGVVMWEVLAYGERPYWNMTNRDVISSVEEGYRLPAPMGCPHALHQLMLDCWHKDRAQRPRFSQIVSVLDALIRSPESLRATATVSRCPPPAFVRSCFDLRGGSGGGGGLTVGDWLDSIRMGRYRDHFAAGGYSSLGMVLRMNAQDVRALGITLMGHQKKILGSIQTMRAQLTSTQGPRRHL

SMILES: O=C1c2ccc(Nc3ccc(F)cc3F)cc2CCc2ccc(OC[C@H](O)CO)cc21 [Skepinone-L]
- Activity [1]: 95%
- Activity [2]: 100%
- Activity [3]: 104%
- Activity [4]: 102%
- Activity [5]: 100%
- Activity [6]: 100%
- Activity [7]: 102%
- Activity [8]: 100%
- Activity [9]: 100%
- Activity [10]: 80%
- Activity [11]: 94%
- Activity [12]: 94%
- Activity [13]: 100%
- Activity [14]: 95%
- Activity [15]: 88%
- Activity [16]: 87%
- Activity [17]: 100%
- Activity [18]: 100%
- Activity [19]: 92%
- Activity [20]: 83%
- Activity [21]: 97%
- Activity [22]: 77%
- inhibition at 10 µM (CYP2C19): 42%
- Activity [23]: 99%
- Activity [24]: 92%
- Activity [25]: 100%
- Activity [26]: 96%
- Activity [27]: 88%
